Results: PubChem BioAssay (NCI)
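Compound exposure: 48 hours, 5 concentrations, 96-well plates. TGI denotes the concentration required for complete inhibition of growth.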

Legend:
Test in all cases: growth of human tumour cells (NCI), 48 h
EKVX NSCLC = system: EKVX NSCLC
HL-60(TB) leukemia = system: HL-60(TB) leukemia
MCF7 breast = system: MCF7 breast
MOLT-4 leukemia = system: MOLT-4 leukemia
OVCAR-3 ovarian = system: OVCAR-3 ovarian
OVCAR-8 ovarian = system: OVCAR-8 ovarian
SK-MEL-2 melanoma = system: SK-MEL-2 melanoma
SNB-75 CNS = system: SNB-75 CNS
SR leukemia = system: SR leukemia
UO-31 renal = system: UO-31 renal

SMILES: COc1ccc(/C=C2\CCC(C)C3=C2NC(=S)NC3c2ccc(OC)c(OC)c2)cc1OC (centres undefined)
- TGI (EKVX NSCLC): > 31.6 µM
- TGI (HL-60(TB) leukemia): > 31.6 µM
- TGI (MCF7 breast): > 31.6 µM
- TGI (MOLT-4 leukemia): 25.3 µM
- TGI (OVCAR-3 ovarian): > 31.6 µM
- TGI (OVCAR-8 ovarian): > 90.2 µM
- TGI (SK-MEL-2 melanoma): > 31.6 µM
- TGI (SNB-75 CNS): > 100 µM
- TGI (SR leukemia): 39.3 µM
- TGI (UO-31 renal): > 31.6 µM

SMILES: Clc1ccc(/C=C/c2nc3ccccc3s2)cc1Cl
- TGI (EKVX NSCLC): > 100 µM
- TGI (HL-60(TB) leukemia): > 100 µM
- TGI (MCF7 breast): > 100 µM
- TGI (MOLT-4 leukemia): > 100 µM
- TGI (OVCAR-3 ovarian): > 100 µM
- TGI (OVCAR-8 ovarian): > 100 µM
- TGI (SNB-75 CNS): 40.9 µM
- TGI (SR leukemia): > 100 µM
- TGI (UO-31 renal): 56 µM

SMILES: N#CC1=C(N)N(c2ccccc2)C(c2ccco2)C1(C#N)C#N (centres undefined)
- TGI (EKVX NSCLC): 73.3 µM
- TGI (HL-60(TB) leukemia): 53.4 µM
- TGI (MCF7 breast): 43.9 µM
- TGI (MOLT-4 leukemia): 71 µM
- TGI (OVCAR-3 ovarian): 56.7 µM
- TGI (OVCAR-8 ovarian): 51.8 µM
- TGI (SK-MEL-2 melanoma): 59.4 µM
- TGI (SNB-75 CNS): 66.8 µM
- TGI (SR leukemia): 51.1 µM
- TGI (UO-31 renal): 33.6 µM

SMILES: O=C1/C(=C/c2ccc(O)cc2)CC/C1=C\c1ccc(O)cc1
- TGI (EKVX NSCLC): > 100 µM
- TGI (HL-60(TB) leukemia): 34.5 µM
- TGI (MCF7 breast): > 100 µM
- TGI (MOLT-4 leukemia): > 52.8 µM
- TGI (OVCAR-3 ovarian): > 100 µM
- TGI (OVCAR-8 ovarian): > 100 µM
- TGI (SK-MEL-2 melanoma): > 100 µM
- TGI (SNB-75 CNS): > 100 µM
- TGI (SR leukemia): > 100 µM
- TGI (UO-31 renal): > 100 µM

SMILES: CC[C@@]1(O)C(=O)OCc2c1cc1n(c2=O)Cc2c-1nc1ccccc1c2/C=N\NC(=O)CN
- TGI (EKVX NSCLC): > 100 µM
- TGI (HL-60(TB) leukemia): > 100 µM
- TGI (MCF7 breast): > 64 µM
- TGI (MOLT-4 leukemia): 0.368 µM
- TGI (OVCAR-3 ovarian): > 91 µM
- TGI (OVCAR-8 ovarian): > 95.5 µM
- TGI (SK-MEL-2 melanoma): > 100 µM
- TGI (SNB-75 CNS): 6.21 µM
- TGI (SR leukemia): 0.464 µM
- TGI (UO-31 renal): 5.38 µM

SMILES: CC(C)CC(=O)OC[n+]1ccc(-c2c(COC(=O)NC(C)C)c(COC(=O)NC(C)C)c3n2CCC3)cc1
- TGI (EKVX NSCLC): > 100 µM
- TGI (HL-60(TB) leukemia): > 100 µM
- TGI (MCF7 breast): > 100 µM
- TGI (MOLT-4 leukemia): > 100 µM
- TGI (OVCAR-3 ovarian): > 100 µM
- TGI (OVCAR-8 ovarian): > 100 µM
- TGI (SK-MEL-2 melanoma): > 100 µM
- TGI (SNB-75 CNS): > 100 µM
- TGI (SR leukemia): > 100 µM
- TGI (UO-31 renal): > 100 µM

SMILES: COc1ccc(C(OCC2OC(n3cc(C)c(=O)[nH]c3=O)CC2n2cc(Cn3cc(I)c(=O)[nH]c3=O)nn2)(c2ccccc2)c2ccccc2)cc1 (centres undefined)
- TGI (EKVX NSCLC): > 100 µM
- TGI (HL-60(TB) leukemia): 5.55 µM
- TGI (MCF7 breast): > 100 µM
- TGI (MOLT-4 leukemia): > 100 µM
- TGI (OVCAR-3 ovarian): > 100 µM
- TGI (OVCAR-8 ovarian): > 100 µM
- TGI (SK-MEL-2 melanoma): > 100 µM
- TGI (SNB-75 CNS): > 100 µM
- TGI (SR leukemia): > 100 µM
- TGI (UO-31 renal): > 100 µM

SMILES: Cc1ccccc1-n1c(=O)c2ncn(CCCl)c2n(-c2ccccc2C)c1=S
- TGI (EKVX NSCLC): > 100 µM
- TGI (HL-60(TB) leukemia): > 100 µM
- TGI (MCF7 breast): > 100 µM
- TGI (MOLT-4 leukemia): > 100 µM
- TGI (OVCAR-3 ovarian): > 100 µM
- TGI (OVCAR-8 ovarian): > 100 µM
- TGI (SK-MEL-2 melanoma): > 100 µM
- TGI (SNB-75 CNS): > 100 µM
- TGI (SR leukemia): > 100 µM
- TGI (UO-31 renal): > 100 µM

SMILES: CCNC(=S)N/N=C/c1cc([N+](=O)[O-])ccc1O
- TGI (EKVX NSCLC): > 100 µM
- TGI (HL-60(TB) leukemia): 40.8 µM
- TGI (MCF7 breast): 4.4 µM
- TGI (MOLT-4 leukemia): 63.7 µM
- TGI (OVCAR-8 ovarian): > 100 µM
- TGI (SK-MEL-2 melanoma): > 100 µM
- TGI (SNB-75 CNS): > 100 µM
- TGI (SR leukemia): 59.3 µM
- TGI (UO-31 renal): > 100 µM

SMILES: O=C1OCC(O)=C1C(c1ccc(Cl)cc1)c1cc2c(cc1O)OCO2 (centres undefined)
- TGI (EKVX NSCLC): > 100 µM
- TGI (HL-60(TB) leukemia): > 100 µM
- TGI (MCF7 breast): > 100 µM
- TGI (MOLT-4 leukemia): > 100 µM
- TGI (OVCAR-3 ovarian): > 100 µM
- TGI (SK-MEL-2 melanoma): > 100 µM
- TGI (SNB-75 CNS): > 100 µM
- TGI (SR leukemia): > 100 µM
- TGI (UO-31 renal): > 100 µM

SMILES: Oc1cccc2c(Cl)ccnc12
- TGI (EKVX NSCLC): > 30.8 µM
- TGI (HL-60(TB) leukemia): 3.36 µM
- TGI (MCF7 breast): > 100 µM
- TGI (MOLT-4 leukemia): 4.19 µM
- TGI (OVCAR-3 ovarian): 3.19 µM
- TGI (OVCAR-8 ovarian): > 100 µM
- TGI (SNB-75 CNS): > 100 µM
- TGI (SR leukemia): 9.57 µM
- TGI (UO-31 renal): > 95.3 µM

SMILES: Cc1cc(O)c2c(=O)c3ccccc3[nH]c2c1
- TGI (EKVX NSCLC): > 100 µM
- TGI (HL-60(TB) leukemia): 64.7 µM
- TGI (MCF7 breast): > 100 µM
- TGI (MOLT-4 leukemia): > 100 µM
- TGI (OVCAR-3 ovarian): > 100 µM
- TGI (OVCAR-8 ovarian): 70.2 µM
- TGI (SK-MEL-2 melanoma): > 100 µM
- TGI (SNB-75 CNS): 93.6 µM
- TGI (SR leukemia): 52.6 µM

SMILES: COC(=O)[C@H]1CO[C@@H](C(C)(C)C)N1C(=O)N1C=CC(=O)C[C@@H]1C
- TGI (EKVX NSCLC): > 100 µM
- TGI (HL-60(TB) leukemia): > 100 µM
- TGI (MCF7 breast): > 100 µM
- TGI (OVCAR-3 ovarian): > 100 µM
- TGI (OVCAR-8 ovarian): > 100 µM
- TGI (SK-MEL-2 melanoma): > 100 µM
- TGI (SNB-75 CNS): > 100 µM
- TGI (SR leukemia): > 100 µM
- TGI (UO-31 renal): > 100 µM

SMILES: COc1ccc(C2c3cc4c(cc3OC(NNS(=O)(=O)c3ccc(C)cc3)C2C)OCO4)cc1 (centres undefined)
- TGI (HL-60(TB) leukemia): 84.7 µM
- TGI (MCF7 breast): > 100 µM
- TGI (MOLT-4 leukemia): > 100 µM
- TGI (OVCAR-3 ovarian): > 100 µM
- TGI (OVCAR-8 ovarian): > 100 µM
- TGI (SK-MEL-2 melanoma): > 100 µM
- TGI (SNB-75 CNS): > 100 µM
- TGI (SR leukemia): 69.7 µM
- TGI (UO-31 renal): > 100 µM

SMILES: CC1(C)N=C(/C(Cl)=[N+](/[O-])C(=O)c2ccc(F)cc2)C(C)(C)N1O
- TGI (EKVX NSCLC): 40.6 µM
- TGI (HL-60(TB) leukemia): 27.3 µM
- TGI (MCF7 breast): 44 µM
- TGI (OVCAR-3 ovarian): 31.2 µM
- TGI (OVCAR-8 ovarian): 33.9 µM
- TGI (SK-MEL-2 melanoma): 40.3 µM
- TGI (SNB-75 CNS): 32.7 µM
- TGI (SR leukemia): 27.8 µM
- TGI (UO-31 renal): 37.9 µM

SMILES: c1ccc(N=C2SC3=Nc4cccc5cccc(c45)N3C2=Nc2ccccc2)cc1
- TGI (HL-60(TB) leukemia): > 100 µM
- TGI (MCF7 breast): > 100 µM
- TGI (MOLT-4 leukemia): > 100 µM
- TGI (OVCAR-3 ovarian): > 100 µM
- TGI (OVCAR-8 ovarian): > 100 µM
- TGI (SK-MEL-2 melanoma): > 100 µM
- TGI (SNB-75 CNS): > 100 µM
- TGI (SR leukemia): > 100 µM
- TGI (UO-31 renal): > 100 µM

SMILES: CCC[C@@H](O)C[C@@H]1CCC[C@H](C[C@@H](O)CC)N1C
- TGI (EKVX NSCLC): > 100 µM
- TGI (HL-60(TB) leukemia): > 100 µM
- TGI (MCF7 breast): > 100 µM
- TGI (MOLT-4 leukemia): > 100 µM
- TGI (OVCAR-3 ovarian): > 100 µM
- TGI (OVCAR-8 ovarian): > 100 µM
- TGI (SK-MEL-2 melanoma): > 100 µM
- TGI (SR leukemia): > 100 µM
- TGI (UO-31 renal): > 100 µM

SMILES: O=c1[nH]cc(N=Cc2cc(Cl)cc(Cl)c2O)c(=O)[nH]1
- TGI (EKVX NSCLC): > 100 µM
- TGI (HL-60(TB) leukemia): 46.9 µM
- TGI (MCF7 breast): > 100 µM
- TGI (MOLT-4 leukemia): 69.7 µM
- TGI (OVCAR-3 ovarian): 47.1 µM
- TGI (OVCAR-8 ovarian): > 100 µM
- TGI (SK-MEL-2 melanoma): 41.6 µM
- TGI (SR leukemia): 57.1 µM
- TGI (UO-31 renal): > 100 µM
